# Source: US8173698B2, “Environmental sensitive fluorogenic compounds and their application for singlet oxygen and protein detection” (priority 2003, dated 2012)
# Legend:
# [1] = Dependence of fluorescence emission spectra on solvent; format: physicochemical; conditions: 1 μM; MeOH and aqueous buffer (50 mM Tris pH 7.5) vs DMSO; excitation 488 nm
# Method: Solutions of Compound 5 (1 μM) were prepared in dimethylsulfoxide (DMSO), methanol (MeOH) and aqueous buffer (50 mM Tris pH 7.5). 2 mL portions of these solutions were transferred to 10 mm×10 mm quartz cuvettes and fluorescence emission spectra were recorded on a Hitachi F-4500 spectrofluorometer using identical instrument detection sensitivity settings. Excitation was at 488 nm in all cases. For the DMSO and MeOH solutions, the spectra were re-scanned after addition of a small amount of 0.1 M NaOH to the 2 mL solution sample. Results are plotted in FIG. 3A and FIG. 3B. FIG. 3B represents an approximately 10-fold enlargement on the y-axis of FIG. 3A.
# [2] = biological target: bovine serum albumin (BSA) (Bos taurus, UniProt P02769); conditions: excitation 488 nm
# bovine serum albumin (BSA), sequence (P02769 25-607): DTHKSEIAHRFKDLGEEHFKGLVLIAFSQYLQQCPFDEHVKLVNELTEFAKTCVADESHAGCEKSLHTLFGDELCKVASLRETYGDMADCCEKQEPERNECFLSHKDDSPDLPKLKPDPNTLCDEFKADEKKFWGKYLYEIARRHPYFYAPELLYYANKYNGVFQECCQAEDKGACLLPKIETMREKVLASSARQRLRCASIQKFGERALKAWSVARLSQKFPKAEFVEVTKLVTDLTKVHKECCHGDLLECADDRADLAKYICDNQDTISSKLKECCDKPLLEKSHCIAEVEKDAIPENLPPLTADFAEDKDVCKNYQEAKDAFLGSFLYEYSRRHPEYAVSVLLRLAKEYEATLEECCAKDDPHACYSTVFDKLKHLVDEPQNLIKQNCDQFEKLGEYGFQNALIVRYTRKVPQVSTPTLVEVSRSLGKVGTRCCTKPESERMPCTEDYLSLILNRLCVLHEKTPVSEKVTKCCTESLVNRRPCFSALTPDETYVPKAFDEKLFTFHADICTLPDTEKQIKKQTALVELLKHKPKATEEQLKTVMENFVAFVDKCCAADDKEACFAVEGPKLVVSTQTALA
# Method: A solution of Compound 5 (1 μM) was prepared in phosphate-buffered saline (PBS) (50 mM phosphate buffer, pH 7.4, 150 mM NaCl). A 2 mL portion of this solution was transferred to a 10 mm×10 mm quartz cuvette. The fluorescence emission spectrum of the solution was recorded on a Hitachi F-4500 spectrofluorometer using excitation at 488 nm. 1 μL of a 4.5 mM solution of bovine serum albumin (30% (w/v) BSA (Sigma Chemical Co., St. Louis, Mo., catalog number A-7284)) was then added to the 2 mL of aqueous dye solution. The emission scan measurement was then repeated. Further measurements were made as the amount of added BSA was increased up to 4.5 μM.
structure (smiles),measurement,setting,value
CC(=O)O.Cc1c2ccccc2c(-c2cc3c(-c4ccccc4C(=O)O)c4cc(Cl)c(O)cc4oc-3cc2=O)c2ccccc12 [Compound 5],fluorescence of the dye in MeOH and aqueous buffer relative to that in DMSO,[1],extremely weak fluorescence
same,change of fluorescence upon binding to BSA,"[2]; 1 μM dye in PBS pH 7.4, BSA 0-5 μM",fluorescence enhancement
same,fluorescence emission peak,[2]; in PBS with BSA,540 nm
